Measured values published in ChEMBL document CHEMBL3507680, “University of Dundee, Gates Library screen for HepG2 cell viability”.

Test: Human HepG2 cell viability assay in 384 well format
Type: toxicity, cell-based
Parameters: dose 125 nL, time 70.5 hour; cytotoxicity at 70.5 h: concentration not given beside the values
Conditions: HepG2 cells, read-out: Inhibition

Row | Compound | cytotoxicity at 70.5 h [%]
1 | CC(C)(O)CCc1cccc(C(=O)N2CCC[C@H]2CN2CCCC2)c1 | 32.8
2 | COc1cc(OC)c(-c2nc3c([nH]2)c(C2CC2)nn3C)cc1OC | -3.1
3 | Cc1nc(CN2CCCn3nc(CNC(=O)C4CCC4)cc3C2)co1 | 0.506
4 | Clc1cccc2c3c([nH]c12)CCN(Cc1cc2n(n1)CCNC2)C3 | 22.8
5 | Cn1ncc2c(NC3CN4CCC3CC4)nc(-c3ccncc3)nc21 (stereo unspecified) | 12
6 | CCCN(Cc1cccnc1)C(=O)C1CCNC1 (stereo unspecified) | -1.17
7 | CCN1CC(C(=O)NCc2noc(Cc3ccccc3)n2)CCC1=O (stereo unspecified) | -12.4
8 | CCN(CCCN1CCOCC1)C(=O)c1cnn(CC)c1 | 2.38
9 | Nc1ncc(C(=O)N2CCC(O)(CO)CC2)c(-c2ccccc2)n1 | -15.6
10 | CN(Cc1cc2n(n1)CCN(C(=O)c1cccnc1)C2)Cc1nccs1 | -12
11 | CSCCC(=O)N1C[C@H](Nc2ccnc(C)n2)[C@@H](C(C)C)C1 | -23.4
12 | c1ccc(SCCN2CCCC(Cn3ccnc3)C2)cc1 (stereo unspecified) | -5.94
13 | CCCc1nnc(N2CCC(N3CCCC3)CC2)o1 | 26
14 | O=S(=O)(NCc1ccccc1)Nc1cccc(Cn2cncn2)c1 | -7.79
15 | COc1ccccc1OCc1cc(C(=O)N2CCS(=O)(=O)CC2)n[nH]1 | -6.21
16 | CCOc1ccnc(N2CCN(Cc3ncccc3C)CC2)n1 | 3.5
17 | O=C(c1cccnc1-c1ccc2c(c1)OCCO2)N1CCCC1 | -8.05
18 | C[C@@H]1CN(CCOc2ccc(F)cc2)CC[C@@]1(O)C1CCOCC1 | -2.42
19 | O=C(CCN1CCCC(CC2CC2)(C(=O)O)C1)NC1CCCC1 (stereo unspecified) | -9.72
20 | OC1(CN2CCC(Oc3cccc(C(F)(F)F)c3)CC2)CNCCOC1 (stereo unspecified) | -15.4
21 | Cc1cc(CN2CCCC2)cc(Oc2ccc(C(F)(F)F)cn2)c1 | -0.531
22 | NC(=O)CCC(=O)N1CCc2[nH]nc(-c3ccc4c(c3)OCO4)c2C1 | -5.52
23 | O=C(Nc1ccccc1OCCc1ccccn1)N1CCOCC1 | -13.5

Row | Compound | cytotoxicity at 70.5 h [%]
24 | COc1ccc(F)cc1C(=O)N1CC(c2ccncc2)C1 | -10
25 | CCCc1nc(C)cc(N2CCC3(CCC(=O)N(CCCO)C3)CC2)n1 | -7.61
26 | COc1ccc2c(c1)C(C(=O)NCCN1CCOC1=O)CC(=O)N2 (stereo unspecified) | -4.48
27 | COC(=O)[C@H]1C[C@@H](O)CCN1S(=O)(=O)c1c(C)cc(OC)c(C)c1C | 27
28 | CN1CC[C@H]2CN(C(=O)c3csc(Cc4ccccc4)n3)C[C@H]21 | -5.61
29 | CCNC(=O)[C@@H]1C[C@@H](NC(=O)c2cc(C)on2)CN1Cc1ccccn1 | 24.8
30 | Cc1ccccc1SC1CCN(C(=O)CCCS(N)(=O)=O)CC1 | -5.95
31 | Cc1nc(C(=O)N[C@H]2COC[C@@H]2N2CCCCC2)cs1 | 17.8
32 | CCN1CCN(c2ncnc3c2CCN(C(=O)C2CC2)C3)CC1 | 26.2
33 | CC(NC(=O)COc1ccc(Cl)cc1Cl)c1nncn1C(C)C (stereo unspecified) | -3.07
34 | N#Cc1c(N)nc2c(c1-c1c[nH]nc1C1CCCCC1)CC(N)CC2 (stereo unspecified) | 22.4
35 | Cc1ccncc1C(=O)N1CC[C@@]2(O)CCN(C3CCCCC3)C[C@H]2C1 | -3.63
36 | Cc1ccccc1C(C(=O)N(C)CCc1cnn(C)c1)N(C)C (stereo unspecified) | -0.295
37 | CCN1CCCC1CN(Cc1ccon1)CC1CCN(CCOC)CC1 (stereo unspecified) | -9.79
38 | c1cc(CN2CCC(c3nnc4n3CCCCC4)CC2)c2nonc2c1 | 12.2
39 | Cc1cc(CNC(=O)C2CC(=O)N(CCN(C)C)C2)cc(C)n1 (stereo unspecified) | 27.5
40 | COc1c(F)ccc(C(=O)N2CC[C@H](CO)[C@@H](O)C2)c1F | -3.48
41 | CC(C)OC(C)c1nnc(SCC(=O)O)n1-c1ccc(F)cc1F (stereo unspecified) | -6.19
42 | O=C1CCC2(CCCN(C(=O)c3ccoc3)C2)CN1CCc1c[nH]cn1 (stereo unspecified) | -4.81
43 | CN(C)C[C@H]1C[C@H](CO)CN(C(=O)c2cc(S(N)(=O)=O)ccc2F)C1 | -3.55
44 | Cc1nc2c(c(=O)n1C)CN(C(=O)C1CCN(C(=O)C3CCC3)CC1)C2 | -1.69
45 | Cc1ncsc1CCC(=O)N1CCn2cccc2C1c1cccnc1 (stereo unspecified) | -3.49
46 | O=C(NCc1nnc2n1CCCC2)c1cn(-c2ccccc2)nn1 | -4.64

Row | Compound | cytotoxicity at 70.5 h [%]
47 | CCc1cc(N[C@@H]2C[C@H]3CC[C@@H]2C3)n2nccc2n1 | -6.76
48 | CCc1c(C)sc2ncnc(N3CC[C@@H](N4CCOCC4)[C@H](O)C3)c12 | -4.12
49 | COCCC1CCCCN1Cc1nc(C2CC2)no1 (stereo unspecified) | -9.77
50 | O=C(CCCOCc1ccccc1)N1CCCC(c2ncc[nH]2)C1 (stereo unspecified) | -22.8
51 | CCCSCC(=O)N1CCN(c2ccc(C)cc2)CC1C (stereo unspecified) | -14.9
52 | COC[C@]1(O)CCN(Cc2cnc(N3CCOCC3)nc2)CC1(C)C | -14.6
53 | Fc1ccccc1Cc1noc(CN2CCC(N3CCSCC3)CC2)n1 | -3.88
54 | Fc1ccc(N2CCN(CCCc3cn[nH]c3)CC2)cc1 | 12
55 | COc1ccnc(CN2CC(=O)N(c3ccc(C)cc3)CC2C)c1OC (stereo unspecified) | 16.8
56 | Cc1ccc2cc(C3(O)CCN(C(=O)[C@@H]4CCCCN4)CC3)ccc2n1 | -2.74
57 | CCc1[nH]c2ccc(CNC(=O)c3cnc(N)nc3C)cc2c1C | -3.2
58 | CN(C)C(C(=O)N1CCCN(C(=O)C2CCC2)CC1)c1ccccc1F (stereo unspecified) | -9.38
59 | CCCOCC1CCN(C(=O)Cn2cccc(C(F)(F)F)c2=O)C1 (stereo unspecified) | 3.49
60 | CC(C)(C)CC(=O)N1CCC(n2cc(C3(O)CCCC3)nn2)CC1 | -7.65
61 | CCOCc1nc(-c2cccc(OC)c2OC)n(C2CCN(C)CC2)n1 | -1.78
62 | CSc1ccccc1-n1ccnc1-c1cn(C2CCNCC2)nn1 | 2.69
63 | COCCCC1CCCN(Cc2c(C)ccc3ncccc23)C1 (stereo unspecified) | 6.57
64 | CN1CCCC1CCn1ccnc1-c1ccc2ccccc2n1 (stereo unspecified) | 1.35
65 | Cc1nc(C2CCNCC2)cc(N(C)CCc2cn[nH]c2)n1 | -3.08
66 | CC(C1CCN(Cc2c(Cl)ccc(O)c2Cl)CC1)N1CCN(C)CC1 (stereo unspecified) | -4.03
67 | CNc1nc(C(=O)N2CCCC(CO)(CCCOC)C2)cs1 (stereo unspecified) | -4.71
68 | Cc1nc2c(c(N3CCC(CN4CCCC4=O)CC3)n1)CCNCC2 | -5.86
69 | CN(Cc1ccccc1)c1ncccc1CNC1CCCC1 | -1.34

Row | Compound | cytotoxicity at 70.5 h [%]
70 | CCC1(O)CCCN(c2nc(-c3ccccn3)nc3c2c(C)nn3C)C1 (stereo unspecified) | -2.92
71 | CC(C)c1cc(N2CCC3(CC2)CN(C)CCN3C)ncn1 | -4.93
72 | Cc1cc(C)n(CC2(CNC(=O)C(c3ccccc3F)N(C)C)CC2)n1 (stereo unspecified) | -5.49
73 | CC(=O)c1cccc(C(=O)N2C[C@@H](CN3CCCCCC3)[C@@H](CO)C2)c1 | -5.31
74 | Cc1ccc2[nH]c(=O)c(CN(C)Cc3cc(C4CC4)[nH]n3)cc2c1 | 11.1
75 | CC(C)c1noc(C2CC(=O)N(CCN(C)C)C2)n1 (stereo unspecified) | -8.25
76 | c1ccc(CCN2CCN(C3CCOC4(CCOCC4)C3)CC2)cc1 (stereo unspecified) | -5.08
77 | CC(NC1CCSCC1)c1ccccc1-n1cccn1 (stereo unspecified) | -11.7
78 | Cc1nc(CCN2CCC(Oc3ccccc3F)CC2)cs1 | 9.73
79 | COc1cccc2c1OCC(CNC(=O)CCn1cnnn1)C2 (stereo unspecified) | -1.24
80 | CCCn1cc(C(=O)NC(C)c2c(C)nn(CC)c2C)c(C)n1 (stereo unspecified) | -8.59
81 | CN(Cc1nc(Cc2cccc(C(F)(F)F)c2)no1)C1CCCCC1 | -10.4
82 | CC(C)c1cc(C(=O)NCCN2CCCCC2CO)on1 (stereo unspecified) | -7
83 | CCc1ccc(-c2cn3c(C(=O)NCC(C)C(=O)NC)csc3n2)cc1 (stereo unspecified) | -1.36
84 | O=c1c(C(F)(F)F)cccn1Cc1nnc(-c2cccnc2)o1 | -0.729
85 | O=C(NC1CC1)C1CNCCN1C(=O)CCOc1ccccc1 (stereo unspecified) | -0.757
86 | CCN(CC)C(=O)[C@@H]1C[C@H](n2cc(-c3cccc(OC)c3)nn2)CN1 | -3.79
87 | Cc1cccc2c(=O)c(C(=O)N3CCCC4(CN(C)C(=O)O4)C3)c[nH]c12 (stereo unspecified) | -3.6
88 | Cn1cnc2cc(C(=O)N3CCC(c4ccccc4C(=O)O)C3)cnc21 (stereo unspecified) | -8.01
89 | OC1(CNc2ccc(-c3nc(C4CC4)no3)cn2)CCCCC1 | 22
90 | CCc1cc(NC2CCN(Cc3ccccc3F)CC2)n2nccc2n1 | -16.6
91 | CN1CCN(Cc2ccccc2Oc2nccc3occc23)CC1 | -1.68
92 | O=C1CC2(CCN(C(=O)c3csc(-c4ccccc4)n3)C2)C(=O)N1 (stereo unspecified) | -5.85

Row | Compound | cytotoxicity at 70.5 h [%]
93 | OC1(CN2CCCCC2)CCN(c2cc(C(F)(F)F)ccn2)C1 (stereo unspecified) | -22.3
94 | CCc1ncc(C(=O)N(C)Cc2cc(-c3ccncc3)no2)cn1 | 35.7
95 | CCN(Cc1cccc2c1OCO2)CC1CCCO1 (stereo unspecified) | -6.33
96 | O=C(Nc1ccc(-n2cccn2)cc1)N1CCOCC(O)C1 (stereo unspecified) | -20.9
97 | CCOc1ccccc1CC(=O)N1CCCC(c2ncc[nH]2)C1 (stereo unspecified) | -0.431
98 | CC(C)(C)c1cn(C2CCN(C(=O)c3cncnc3)CC2)nn1 | 18
99 | Cc1ccc(C2(CN3CCN(c4ncccn4)CC3)CCNCC2)nc1 | -1.1
100 | Nc1cc(-c2cc(O)cc(C(=O)O)c2)c2cc[nH]c2n1 | -10.3
101 | CCC[C@@H]1CN(C(=O)c2ccccc2-c2ncc[nH]2)C[C@H]1N(C)C | -2.55
102 | CSc1ccc(CCN2CCN([C@H]3CCCC[C@@H]3O)CC2)cc1 | -8.75
103 | CN(C)CCCC(=O)N1C[C@H]2CC[C@@H]1CN(Cc1ccccc1)C2 | -6.09
104 | O=C(NCC(F)(F)F)C(c1cccnc1)N1CCOCC1 (stereo unspecified) | -5.8
105 | CCn1nc(CC(C)C)cc1C(=O)N1CCCOC(CN2CCCC2)C1 (stereo unspecified) | -3.36
106 | CN(C)[C@H]1CN(C(=O)CCCc2ccc(F)cc2)C[C@@H]1C1CC1 | -7.35
107 | COc1cc(NCC(c2ccccn2)N2CCOCC2)ncn1 (stereo unspecified) | -3.18
108 | Cc1nc2c(NC(CC(C)(C)C)c3cccnc3)ncnc2o1 (stereo unspecified) | -10.9
109 | O=C(NCCC1CN(C2CCCC2)CCO1)c1cc(=O)[nH]c(=O)[nH]1 (stereo unspecified) | -11.6
110 | Cc1ccc(F)cc1CC(=O)N1CC[C@@]2(O)CCNC[C@H]2C1 | -5.81
111 | Cc1ocnc1C(=O)N1CCC(c2nccn2Cc2ccncc2)CC1 | -6.78
